Data reported in patent EP0738149B1 (priority 1994, dated 1995).
Counter-ions that a name gives are not always drawn.

Tests used:
mice [1] = assay: Neurotoxicity in mice (rotorod ataxia test), i.p.; conditions: mice, i.p.; Table 16
Method: (§1) Neurotoxicity of the claimed agents was also assessed in mice (i.p. administration) by the rotorod ataxia test and/or in rats (p.o. administration) by positional sense test and gait stance test. […] The term quantitating the neurotoxicity is the medial neurological toxic dose (TD50), was determined in the above tests.

[2] = Neurotoxicity in mice (rotorod ataxia test), i.p.; conditions: mouse, in vivo, ip
Method: as §1

in vivo = conditions: rat, in vivo, po
Method: as §1

rats [3] = assay: Neurotoxicity in rats (positional sense test and gait stance test), p.o.; conditions: rats, p.o.; Table 16
Method: as §1

rats [4] = assay: Maximal electroshock (MES) model in rats, p.o.;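 for all read-outs here: rat MES model gauging antiepileptic efficacy versus generalized and partial seizures after oral dosing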; type: in vivo; conditions: for ED50: Rattus norvegicus, po, read-out: RATS MES 50; for RATS MES 50: p.o., Table 15
mice [5] = assay: Maximal electroshock (MES) model in mice, i.p.;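 note: Electroshock-induced convulsion model serving to demonstrate antiepileptic efficacy against generalized and partial seizures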; type: in vivo; conditions: Mus musculus, ip, Table 15
male ICR albino mice = assay: Hypobaric hypoxia survival time in mice; type: in vivo
Method: Dessicator B was disconnected and allowed to equilibrate with room air whilst dessicator A was evacuated to a pressure of 100mmHg. […] The survival time from the moment of induction of hypoxia to the time of cessation of respiration was recorded for each mouse for a maximum of 15 minutes after which time room air was reintroduced to dessicator B. Survivors were monitored for signs of lethargy or vitality.
Effect of drug treatment was assessed as the percent of the survival time of the drug treated group with respect to the saline injected or vehicle injected control group. Control groups were run twice, before and after each experimental group and consisted of 12-16 mice in groups of 4 mice. Each experimental group always consisted of 4 mice to ensure a constant residual volume of oxygen in all tests. The effect of each dose of test drug was determined in duplicate i.e. two groups of 4 mice.
All drugs were administered intra-peritoneally at the dose indicated one hour prior to exposure to hypoxia.

[6] = test system: mechanically dissociated neonatal rat cerebellum; assay: Reversal of NMDA induced cell death in cultures of neonatal rat cerebellum; type: cell-based; conditions: for SURVIVING CELL IN CULTURE: relative to control (100%); for PERCENT PROTECTION: Cell Survival minus the NMDA effect
Method: The cerebellum was aseptically dissociated from 6 or 7-day old rat pups and placed in a 15ml sterile plastic conical tube containing 3ml of Dulbecco's modified Eagle's medium (DMEM) with a high glucose concentration ([…]) and 2mM (v/v) L-glutamine and an antibiotic antimitotic mixture. The cerebella were then dissociated after 20-25 passages through a sterile 13 gauge, 10cm long stainless steel needle attached to a 5ml syringe with an inserted 45 micrometer pore nylon sieve. The dissociated cells were centrifuged at 200g for 5 minutes. The supernatant was discarded and the cells resuspended in medium enriched with 15% (v/v) heat inactivated fetal calf serum. Cell viability was determined by the tryptan blue exclusion test.
Cells were plated at a density of 200/mm^2 on poly-L-lysine coated surfaces. Poly-L-lysine coated glass coverslips were prepared at least one hour in advance of plating by immersing sterile coverslips in sterile distilled water solution containing 15 microgram/ml poly-L-lysine, and washing in sterile water just prior to use. The plated cells were covered with enriched medium and incubated at 37°C in an atmosphere of 5% CO2 in air and 97% humidity. After three days in culture, the media was replaced with media containing the desired test compound. Each test compound was tested in duplicate. Toxic-dose response was determined for each compound.
Four groups were run in each set of experiments; • I. Control, consisting of enriched media alone, • II. N-methyl-D-aspartate (NMDA, 1mM for 3 hours) as the cytotoxic challenge, • III. Test compound plus NMDA, and • IV. Positive control, spermine(0.01 micromoles) plus NMDA.
Nerve cell survival was evaluated by phase contrast microscopy and tryptan blue staining after 24 hours.
Surviving cells in culture are measured relative to control (100%), as described above. Percent protection is the Cell Survival for the test compound minus the NMDA effect. Thus, maximal protection is 100% minus 30% NMDA effect i.e. […]. The Effective Protection was calculated as the percent of the Percent Protection (X) divided by the maximal protection value (e.g. X x 100/70).

Male mongolian gerbils = assay: Global brain ischemia in gerbils (CA1 pyramidal neurons); type: in vivo; conditions: 3 injections, fraction of hippocampi protected from ischemia, 14 days post-ischemia
Method: Each artery was clamped for 5 minutes with aneurysm clips to produce global brain ischemia. The anesthesia was discontinued upon clamping. After 5 minutes the clamps were removed and the wound closed with skin clips.
For treatment, the test compound or vehicle were injected intra-peritoneally (ip) in a volume of 50 microliters of solvent per 10g body weight. The first injection was given two minutes after clamp removal, and thereafter daily for the next 2 post-operative days (total of 3 injections).
Seven groups each of 4-8 animals were compared: • I. Control; (sham- or unoperated and saline treated), • II. Vehicle treated, unoperated (when solvent is other than saline), • III. Ischemia - untreated or saline treated), • IV. Ischemia - vehicle treated (when solvent is other than saline), • V. Ischemia - Test compound treated, one sub-group per concentration tested, • VI. Ischemia and pentobarbital (40 mg/kg) as positive control).
Analysis of neuronal damage was performed 14 days post-ischemia by counting pyramidal neurons throughout the CA1 layer of the anterior hippocampus in […] thick (paraffin) coronal brain sections stained with hematoxylin and erosin.
Percent Protection values represent the fraction of hippocampi protected from ischemia in a group of animals treated with the stated dose of compound.

rats [7] = assay: Closed head injury in rats: motor function (Neurological Severity Status), Experiments 4A-4E
[8] = 50 mg/kg ip one hour prior to hypoxia
[9] = 100 mg/kg ip one hour prior to hypoxia
[10] = Exp 4A, 0.1mg/kg i.p. at 0,4,8 and 12 hours post-trauma
[11] = Exp 4B, 0.1mg/kg once a day for 14 days

NC1CCc2ccccc21 (racemic) [A, 1-aminoindan]
MICE TD50 (mice [1]): >100 mg/kg
TD50 [2]: > 100 mg/kg
TD50 (in vivo): > 168 mg/kg
RATS TD50 (rats [3]): >168 mg/kg
ED50 (rats [4]): 36 mg/kg

CN(C)C1CCc2ccccc21 (racemic) [Example 15, (rac)-N,N-Dimethyl-1-aminoindan.HCl]
TD50 ([2]; MICE TD50, mice, Table 15): < 100 mg/kg
TD50 ([2]; MICE TD50, mice, Table 16): < 100 mg/kg
TD50 (in vivo): > 50 mg/kg
RATS TD50 (rats [3]): >50 mg/kg
RATS MES 50 (rats [4]): 50 mg/kg

Cc1cccc2c1C(N)CC2 (racemic) [Example 28, (rac)-7-Methyl-1-aminoindan.HCl]
ED50 (mice [5]): < 100 mg/kg
TD50 ([2]; MICE TD50, mice, Table 15): < 100 mg/kg
TD50 (in vivo): > 50 mg/kg
RATS MES 50 (rats [4]): <50 mg/kg
PROTECTION % OF RESPECTIVE CONTROL (male ICR albino mice; [8]): 361±106 % OF RESPECTIVE CONTROL
PROTECTION % OF RESPECTIVE CONTROL (male ICR albino mice; [9]): 941±34 % OF RESPECTIVE CONTROL

Cc1cc(C)c2c(c1)C(C)CC2N.Cl (racemic) [Example 41, (rac)-3,5,7-Trimethyl-1-aminoindan.HCl]
PROTECTION % OF RESPECTIVE CONTROL (male ICR albino mice; [8]): 187±41 % OF RESPECTIVE CONTROL
PROTECTION % OF RESPECTIVE CONTROL (male ICR albino mice; [9]): 644±316 % OF RESPECTIVE CONTROL

NC1CCc2cccc(O)c21 (racemic) [Example 42, (rac)-7-Hydroxy-1-aminoindan.HCl]
TD50 (in vivo): > 50 mg/kg
RATS MES 50 (rats [4]): <50 mg/kg
PROTECTION % OF RESPECTIVE CONTROL (male ICR albino mice; [8]): 179±170 % OF RESPECTIVE CONTROL
PROTECTION % OF RESPECTIVE CONTROL (male ICR albino mice; [9]): 228±119 % OF RESPECTIVE CONTROL

CN1C(=O)CN=C(c2ccccc2)c2cc(Cl)ccc21 [Diazepam, diazepam, reference compound]
PROTECTION % OF RESPECTIVE CONTROL (male ICR albino mice; 5 mg/kg ip 0.5 hour prior to hypoxia): 249±166 % OF RESPECTIVE CONTROL
PROTECTION % OF RESPECTIVE CONTROL (male ICR albino mice; 10 mg/kg ip 0.5 hour prior to hypoxia): 430±59 % OF RESPECTIVE CONTROL

CN[C@H]1CCc2ccccc21 [Example 14, (S)-N-Methyl-1-aminoindan.HCl]
TD50 ([2]; MICE TD50, mice, Table 15): 100 mg/kg
TD50 ([2]; MICE TD50, mice, Table 16): 100 mg/kg
TD50 (in vivo): > 142 mg/kg
RATS TD50 (rats [3]): >142 mg/kg

COc1ccc2c(c1OC)CC[C@@H]2N.Cl [Example 30, (S)-4,5-Dimethoxy-1-aminoindan, HCl]
PROTECTION % OF RESPECTIVE CONTROL (male ICR albino mice; [8]): 265±284 % OF RESPECTIVE CONTROL
PROTECTION % OF RESPECTIVE CONTROL (male ICR albino mice; [9]): 379±202 % OF RESPECTIVE CONTROL

Cl.N[C@@H]1CCc2ccc(O)cc21 [Example 35, (R)-6-Hydroxy-1-aminoindan.HCl]
SURVIVING CELL IN CULTURE ([6]; 0.005 µM + NMDA 1mM for 3 hours): 60%
PERCENT PROTECTION ([6]; 0.005 µM + NMDA): 30%
EFFECTIVE PROTECTION ([6]; 0.005 µM + NMDA, X x 100/70): 43%
SURVIVING CELL IN CULTURE ([6]; 0.010 µM + NMDA 1mM for 3 hours): 34%
PERCENT PROTECTION ([6]; 0.010 µM + NMDA): 4%
EFFECTIVE PROTECTION ([6]; 0.010 µM + NMDA, X x 100/70): 6%
SURVIVING CELL IN CULTURE ([6]; 0.100 µM + NMDA 1mM for 3 hours): 30%
PERCENT PROTECTION ([6]; 0.100 µM + NMDA): 0%
EFFECTIVE PROTECTION ([6]; 0.100 µM + NMDA, X x 100/70): 0%
PERCENT PROTECTION (Male mongolian gerbils; 0.1 mg/kg ip): 25.0%
PERCENT PROTECTION (Male mongolian gerbils; 1.0 mg/kg ip): 37.5%
PERCENT PROTECTION (Male mongolian gerbils; 10.0 mg/kg ip): 37.5%

C[C@@H]1Cc2ccccc2[C@H]1N [Example 39, (rac)-trans-2-Methyl-1-aminoindan.HCl]
ED50 (mice [5]): < 100 mg/kg
TD50 ([2]; MICE TD50, mice, Table 15): < 100 mg/kg
TD50 (in vivo): > 50 mg/kg
RATS MES 50 (rats [4]): <50 mg/kg
PROTECTION % OF RESPECTIVE CONTROL (male ICR albino mice; [8]): 600±213 % OF RESPECTIVE CONTROL
PROTECTION % OF RESPECTIVE CONTROL (male ICR albino mice; [9]): 798±249 % OF RESPECTIVE CONTROL

C[C@H]1Cc2ccccc2[C@H]1N [Example 40, (rac)-cis-2-Methyl-1-aminoindan.HCl]
ED50 (mice [5]): < 100 mg/kg
TD50 ([2]; MICE TD50, mice, Table 15): < 100 mg/kg
TD50 (in vivo): > 50 mg/kg
RATS MES 50 (rats [4]): <50 mg/kg
PROTECTION % OF RESPECTIVE CONTROL (male ICR albino mice; [8]): 374±190 % OF RESPECTIVE CONTROL
PROTECTION % OF RESPECTIVE CONTROL (male ICR albino mice; [9]): 569±173 % OF RESPECTIVE CONTROL

CCCC(C)C1(CC)C(=O)NC(=O)NC1=O (centres unmarked) [Pentobarbitone, sodium pentobarbital, reference compound]
PROTECTION % OF RESPECTIVE CONTROL (male ICR albino mice; 20 mg/kg ip 0.5 hour prior to hypoxia): 325±166 % OF RESPECTIVE CONTROL
PROTECTION % OF RESPECTIVE CONTROL (male ICR albino mice; 40 mg/kg ip 0.5 hour prior to hypoxia): 446±10.5 % OF RESPECTIVE CONTROL

N[C@H]1CCc2ccccc21 [SAI, (S)-1-aminoindan]
EFFECTIVE PROTECTION ([6]; separate experiment, Maximum Protection possible 90%, 0.01 µM): 43%
EFFECTIVE PROTECTION ([6]; separate experiment, Maximum Protection possible 90%, 0.05 µM): 57%
PERCENT PROTECTION (Male mongolian gerbils; 0.1 mg/kg ip): 0%
PERCENT PROTECTION (Male mongolian gerbils; 1.0 mg/kg ip): 50.0%
PERCENT PROTECTION (Male mongolian gerbils; 10.0 mg/kg ip): 75.0%
NSS 1hr (rats [7]; [10]): 16.4
NSS 24hr (rats [7]; [10]): 10.8
ΔNSS (rats [7]; Exp 4A, 0.1mg/kg i.p. at 0,4,8 and 12 hours post-trauma, change 1 hour to 24 hours): 5.6±0.5
NSS at 1hr (rats [7]; [11]): 16.6±0.3
ΔNSS at 24hr (rats [7]; [11]): 5.5±0.4
ΔNSS at 48hr (rats [7]; [11]): 6.8±2.7
ΔNSS at 7d (rats [7]; [11]): 8.3±1.0
ΔNSS at 14d (rats [7]; [11]): 9.5±1.0
MICE TD50 (mice [1]): 25 mg/kg
TD50 [2]: 25 mg/kg
TD50 (in vivo): > 500 mg/kg
RATS TD50 (rats [3]): >500 mg/kg
ED50 (rats [4]): 17 mg/kg
PROTECTION % OF RESPECTIVE CONTROL (male ICR albino mice; [8]): 174±39 % OF RESPECTIVE CONTROL
PROTECTION % OF RESPECTIVE CONTROL (male ICR albino mice; [9]): 404±244 % OF RESPECTIVE CONTROL
PROTECTION % OF RESPECTIVE CONTROL (male ICR albino mice; dose cell empty (line below 50 mg/kg ip)): 264±66 % OF RESPECTIVE CONTROL
